Data on 23 compounds can be found in patent US4376770A, “Cephalosporin analogs for oral use” (Shionogi & Co., Ltd., priority 1980, dated 1983).

For one data set, the system named is Escherichia coli EC-14. The data set can be described thus: Protection test in mice challenged intraperitoneally with Escherichia coli EC-14. It is filed as in vivo. The following applies: for ED50: Escherichia coli, 168 h. As to the method: To each group consisting of 5 to 10 mice is challenged 2 to 3×10^5 Escherichia coli EC-14 in 5% mucin intraperitoneally. After 1 hour and 5 hours, a suspension of the ester (1) in the foregoing experiment in 5% acacia solution is administered enterally using a tube into stomach. From the survival rate after 7 days, ED50 of the drug is calculated, and the value in mg/kg is interpreted as the corresponding carboxylic acid.
For using as control, it is necessary to use the effect of the corresponding carboxylic acid. […] Then instead, the ED50 value of the corresponding carboxylic acid (2) on subcutaneous injection is assayed and this is used to evaluate the enteral absorption of the ester (1).
The control value of ED50 for the carboxylic acid (2) is estimated as follows: To each group consisting of 5 to 10 mice challenged by Escherichia coli EC-14 intraperitoneally as in the case of oral experiment above is injected a solution of the carboxylic acid (2) in 0.7% aqueous sodium hydrogen carbonate subcutaneously after 1 and 5 hours after the challenge. The ED50 value is calculated from the survival rate from 7 days and expressed in mg/kg value.

The conditions of data set [1]: prior-art compound, statement in words; cited from earlier work.
The conditions of data set [2]: prior-art compound, statement in words; cited from earlier work. The source holds these as a separate data set.
Where [3] appears, read: EC14, sc, subcutaneous in 0.7% aqueous sodium hydrogen carbonate 1 and 5 hours after challenge, survival 7 days, control for ester, read-out: ED50 of Acid (2) subc.
Where [4] appears, read: subcutaneous in 0.7% aqueous sodium hydrogen carbonate 1 and 5 hours after challenge, survival 7 days, control for ester, 10080 min.
Where [5] appears, read: subcutaneous in 0.7% aqueous sodium hydrogen carbonate 1 and 5 hours after challenge, survival 7 days, control for ester.
Setting [6] is: EC14, po, p.o. 1 and 5 hours after challenge, survival after 7 days, value interpreted as the corresponding carboxylic acid, read-out: ED50 of Ester (1) p.o.
[7] abbreviates: p.o. 1 and 5 hours after challenge, survival after 7 days, value interpreted as the corresponding carboxylic acid, 10080 min.

Like-named read-outs stand apart in the source and are kept apart here.

One may read the ED50 as the midpoint of the dose-response relation. For `CCC(C#N)C(=O)N[C@]1(OC)C(=O)N2C(C(=O)O)=C(CSc3nnc(C)s3)CO[C@@H]21` (some centres unmarked) [11 (Acid (2))], the ED50 in the data set on Escherichia coli EC-14 (setting [3]) worked out at 0.87 mg/kg.

Consider `CCC(C#N)C(=O)N[C@]1(OC)C(=O)N2C(C(=O)O)=C(CSc3nnnn3C)CO[C@@H]21` (some centres unmarked) [6 (Acid (2))], for which the “ED50 of Acid (2) subc.” value in the data set with Escherichia coli EC-14 (setting [4]) was determined as 0.45 mg/kg.

On to `CCC(C#N)C(=O)N[C@]1(OC)C(=O)N2C(C(=O)O)=C(CSc3nncs3)CO[C@@H]21` (some centres unmarked) [9 (Acid (2))], for which, in the data set with Escherichia coli EC-14 (setting [3]), the ED50 turned out to be 0.77 mg/kg.

For the compound `CO[C@@]1(NC(=O)C(C)C#N)C(=O)N2C(C(=O)O)=C(CSc3nnnn3C)CO[C@@H]21` (some centres unmarked) [1 (Acid (2))], the ED50 with Escherichia coli EC-14 (setting [3]) turned out to be 1.68 mg/kg.

Turning to `CC(=O)OCC1=C(C(=O)OCOC(=O)C(C)(C)C)N2C(=O)[C@@H](NC(=O)CC#N)[C@H]2SC1` [7β-Cyanoacetamidocephalosporanic acid pivaloyloxymethyl ester], the oral absorption result in data set [1] is given as “does not show oral absorption sufficient as clinical drugs”.

`CCC(C#N)C(=O)N[C@]1(OC)C(=O)N2C(C(=O)O)=C(CSc3nnnn3C)CO[C@@H]21` (some centres unmarked) [5 (Acid (2))]: the “ED50 of Acid (2) subc.” value in the data set on Escherichia coli EC-14 (setting [4]) is given as 0.45 mg/kg.

As to “7β-(2-cyanopropionamido)-7α-methoxy-3-(1-methyl-5-tetrazolyl)thiomethyl-1-dethia-1-oxa-3-cephem-4-carboxylic acid pivaloyloxymethyl ester [No. 1]”, in the data set with Escherichia coli EC-14 (p.o. 1 and 5 hours after challenge, survival after 7 days, value interpreted as the corresponding carboxylic acid), the “ED50 of Ester (1) p.o.” value amounted to 1.39 mg/kg.

Regarding `CCCC(C#N)C(=O)N[C@]1(OC)C(=O)N2C(C(=O)O)=C(CSc3nnnn3C)CO[C@@H]21` (some centres unmarked) [8 (Acid (2))], the “ED50 of Acid (2) subc.” value in the data set on Escherichia coli EC-14 (setting [5]) is recorded as 0.60 mg/kg.

Consider `CCCC(C#N)C(=O)N[C@]1(OC)C(=O)N2C(C(=O)OC(C)OC(=O)OCC)=C(CSc3nnnn3C)CO[C@@H]21` (single isomer, unassigned) [compound 7], for which, in the data set with Escherichia coli EC-14 (setting [6]), the ED50 is 4.7 mg/kg.

Consider `CCCCC(C#N)C(=O)N[C@]1(OC)C(=O)N2C(C(=O)OCOC(=O)C(C)(C)C)=C(CSc3nnnn3C)CO[C@@H]21` (some centres unmarked) [compound 4], for which, in the data set on Escherichia coli EC-14 (setting [6]), the ED50 was 29.8 mg/kg.

In the case of `CCC(C#N)C(=O)N[C@]1(OC)C(=O)N2C(C(=O)O)=C(CSc3nnnn3C)CO[C@@H]21` (some centres unmarked) [2 (Acid (2))], the ED50 in the data set on Escherichia coli EC-14 (setting [3]) was 0.47 mg/kg.

Turning to `CCCC(C#N)C(=O)N[C@]1(OC)C(=O)N2C(C(=O)OC(C)OC(=O)OCC)=C(CSc3nnnn3C)CO[C@@H]21` (single isomer, unassigned) [compound 8], the “ED50 of Ester (1) p.o.” value in the data set on Escherichia coli EC-14 (setting [7]) is reported as 2.82 mg/kg.

Regarding `CCCC(C#N)C(=O)N[C@]1(OC)C(=O)N2C(C(=O)OCOC(=O)C(C)(C)C)=C(CSc3nnnn3C)CO[C@@H]21` (some centres unmarked) [compound 3], the ED50 with Escherichia coli EC-14 (setting [6]) amounted to 5.32 mg/kg.

With `CCC(C#N)C(=O)N[C@]1(OC)C(=O)N2C(C(=O)OCOC(=O)C(C)(C)C)=C(CSc3nncs3)CO[C@@H]21` (some centres unmarked) [No. 9], in the data set with Escherichia coli EC-14 (setting [6]), the ED50 stood at 6.5 mg/kg.

For the compound `CCCCC(C#N)C(=O)N[C@]1(OC)C(=O)N2C(C(=O)O)=C(CSc3nnnn3C)CO[C@@H]21` (some centres unmarked) [4 (Acid (2))], the ED50 in the data set on Escherichia coli EC-14 (setting [3]) was 3.18 mg/kg.

In the case of `CC(=O)OCC1=C(C(=O)O)N2C(=O)[C@@H](NC(=O)CC#N)[C@H]2OC1` [7β-Cyanoacetamido-1-dethia-1-oxacephalosporanic acid], the antibacterial activity entry in data set [2] was “weak antibacterial”.

Regarding `CCOC(=O)OC(C)OC(=O)C1=C(CSc2nncs2)CO[C@H]2N1C(=O)[C@]2(NC(=O)C(C#N)CC)OC` (some centres unmarked) [compound 10], in the data set with Escherichia coli EC-14 (setting [6]), the ED50 was found to be 3.23 mg/kg.

Regarding `CCC(C#N)C(=O)N[C@]1(OC)C(=O)N2C(C(=O)O)=C(CSc3nncs3)CO[C@@H]21` (some centres unmarked) [10 (Acid (2))], the “ED50 of Acid (2) subc.” value in the data set with Escherichia coli EC-14 (setting [5]) is 0.77 mg/kg.

Regarding `CCCC(C#N)C(=O)N[C@]1(OC)C(=O)N2C(C(=O)O)=C(CSc3nnnn3C)CO[C@@H]21` (some centres unmarked) [3 (Acid (2))], the ED50 in the data set on Escherichia coli EC-14 (setting [3]) was 0.6 mg/kg.

Take `CCOC(=O)OC(C)OC(=O)C1=C(CSc2nnnn2C)CO[C@H]2N1C(=O)[C@]2(NC(=O)C(C#N)CC)OC` (single isomer, unassigned) [compound 5]: in the data set on Escherichia coli EC-14 (setting [6]), the ED50 is 2.22 mg/kg.

Take `CCCC(C#N)C(=O)N[C@]1(OC)C(=O)N2C(C(=O)O)=C(CSc3nnnn3C)CO[C@@H]21` (some centres unmarked) [7 (Acid (2))]: the “ED50 of Acid (2) subc.” value in the data set on Escherichia coli EC-14 (setting [5]) is given as 0.60 mg/kg.

For `CCC(C#N)C(=O)N[C@]1(OC)C(=O)N2C(C(=O)OCOC(=O)C(C)(C)C)=C(CSc3nnc(C)s3)CO[C@@H]21` (some centres unmarked) [compound 11], the ED50 in the data set on Escherichia coli EC-14 (setting [6]) was 3.7 mg/kg.

`CCOC(=O)OC(C)OC(=O)C1=C(CSc2nnnn2C)CO[C@H]2N1C(=O)[C@]2(NC(=O)C(C#N)CC)OC` (single isomer, unassigned) [No. 6, 7β-(2-cyano-n-butyryl)amino-7α-methoxy-3-(1-methyl-5-tetrazolyl)thiomethyl-1-dethia-1-oxa-3-cephem-4-carboxylic acid 1-(ethoxycarbonyloxy)ethyl ester]: in the data set on Escherichia coli EC-14 (setting [7]), the “ED50 of Ester (1) p.o.” value was 2.35 mg/kg.
